We go through eight compounds from article PMC11267547, “Advancing drug discovery through assay development: a survey of tool compounds within the human solute carrier superfamily” (Frontiers in Pharmacology, 2024).

One data set has as its system SLC2A1. Also on record: method as in ChEMBL, PubChem. The settings on record: SLC2A1, known data from the KNIME workflow; ref ChEMBL, PubChem; cited from earlier work.
In the next data set the test system is SLC2A4. Also on record: method as in ChEMBL, PubChem. The following applies: SLC2A4, known data from the KNIME workflow; ref ChEMBL, PubChem; cited from earlier work.
The subject of the next data set is SLC2A3. Also on record: method as in ChEMBL. The settings on record: SLC2A3, known data from the KNIME workflow; ref ChEMBL; cited from earlier work.
The target in a further data set is SLC6A4 (Homo sapiens, UniProt P31645).
Sequence of SLC6A4 (P31645 whole entry): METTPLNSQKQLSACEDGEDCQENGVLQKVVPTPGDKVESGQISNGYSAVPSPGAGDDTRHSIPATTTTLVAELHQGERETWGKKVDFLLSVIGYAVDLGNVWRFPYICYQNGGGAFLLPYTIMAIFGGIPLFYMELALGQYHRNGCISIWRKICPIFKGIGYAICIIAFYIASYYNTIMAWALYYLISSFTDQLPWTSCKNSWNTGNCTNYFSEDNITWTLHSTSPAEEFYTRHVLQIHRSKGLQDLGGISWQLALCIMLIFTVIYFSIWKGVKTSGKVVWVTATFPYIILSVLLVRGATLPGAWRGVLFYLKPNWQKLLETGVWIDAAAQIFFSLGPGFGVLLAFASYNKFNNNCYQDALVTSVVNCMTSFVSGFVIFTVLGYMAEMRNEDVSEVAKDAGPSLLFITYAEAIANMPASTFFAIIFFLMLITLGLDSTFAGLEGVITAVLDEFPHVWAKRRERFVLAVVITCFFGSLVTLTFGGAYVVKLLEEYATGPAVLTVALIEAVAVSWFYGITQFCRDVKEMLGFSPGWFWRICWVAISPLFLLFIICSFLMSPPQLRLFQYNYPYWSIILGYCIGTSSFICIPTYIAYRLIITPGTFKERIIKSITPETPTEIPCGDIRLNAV
A further data set concerns SLC2A2. Details: method as in ChEMBL. The settings on record: SLC2A2, known data from the KNIME workflow; ref ChEMBL; cited from earlier work.
A further data set deals with SLC6A19. Details: method as in GtoPdb, pubmed 30589598. The settings on record: SLC6A19, known data from the KNIME workflow; ref GtoPdb, pubmed 30589598; cited from earlier work.
Another data set relates to SLC22A2. Details: method as in PMID 9260930. The following applies: ChEMBL CHEMBL2076808; ref PMID 9260930; cited from earlier work.
The subject of the next data set is SLC22A3. Also on record: method as in PMID 10966924. The settings on record: ChEMBL CHEMBL2078549; ref PMID 10966924; cited from earlier work.
Another data set concerns SLC29A4. Details: method as in PMID 16099839, 27506881. The following applies: GtoPdb 1120; ref PMID 16099839, 27506881; cited from earlier work.
The next data set deals with SLC22A1. Also on record: method as in PMID 18788725, 9655880, 28230985. The following applies: ChEMBL CHEMBL994103, CHEMBL2076233, CHEMBL4009597; ref PMID 18788725, 9655880, 28230985; cited from earlier work.
Another data set relates to ABCG2. Details: method as in Zhao et al., 2022. The settings on record: ref Zhao et al., 2022; cited from earlier work.
A further data set deals with SLC22A6 (OAT1). The settings on record: cited from earlier work.
A further data set deals with SLC2A9 (GLUT9). The following applies: cited from earlier work.
The test system of a further data set is SLC22A12 (URAT1). The following applies: cited from earlier work.
Another data set deals with NR1H4. Also on record: method as in other_targets_pubmed_ids column. The settings on record: cited from earlier work.
For another data set, the system named is KCNK9. Details: method as in other_targets_pubmed_ids column. The settings on record: cited from earlier work.
The next data set relates to HTR2B. Also on record: method as in other_targets_pubmed_ids column. The following applies: cited from earlier work.
The test system of the next data set is SLC6A15. Details: method as in ChEMBL, GtoPdb, pubmed 25318072. The following applies: SLC6A15, known data from the KNIME workflow; ref ChEMBL, GtoPdb, pubmed 25318072; cited from earlier work.
In another data set the test system is PTAFR. Also on record: method as in other_targets_pubmed_ids column. The settings on record: cited from earlier work.
For a further data set, the system named is HRH1. Also on record: method as in other_targets_pubmed_ids column. The following applies: cited from earlier work.
In a further data set the test system is SCN2A. Also on record: method as in other_targets_pubmed_ids column. The following applies: cited from earlier work.
The subject of a further data set is SLC6A1. Details: method as in ChEMBL, GtoPdb. The following applies: SLC6A1, known data from the KNIME workflow; ref ChEMBL, GtoPdb; cited from earlier work.
A further data set has as its system SIGMAR1. Details: method as in pubmed 7990111, 9057857, 12801223. The following applies: ref pubmed 7990111, 9057857, 12801223; cited from earlier work.

SMILES strings stand for the structures.

A word on the IC50: it is the midpoint of a concentration-inhibition curve.

As to `Cc1c(NC(=O)c2cc(C(N)=O)nc3cc(F)ccc23)c(C(F)(F)F)nn1Cc1ccc(C#N)cc1` [BAY-876], the primary_SLC_act in the data set on SLC2A1 is 8.03; in the data set with SLC2A4 it was 5.91; in the data set with SLC2A3 it was 5.56; in the data set on SLC2A2, 5.03. Besides, the “dose–response effect on SERT activity under glucose-free conditions” value on SLC6A4 (glucose-free conditions, HEK293–JumpIn–SLC6A4 cells) is reported as “could not be reproduced”. For the same compound, the “effect on SERT (SLC6A4) activity” value on SLC6A4 (medium with glucose, in words) is reported as “increase in SERT (SLC6A4) activity”.

Regarding `CCNC(=O)/C=C/c1cccc(Br)c1` [Cinromide], in the data set on SLC6A19, the primary_SLC_act is reported as 6.4.

Consider `CNCCCN1c2ccccc2CCc2ccccc21` [Desipramine], for which, in the data set with SLC22A2, the “primary_SLC_act, SLC22A2” value was 4.8. In addition, the “primary_SLC_act, SLC22A3” value with SLC22A3 is on record as 4.85. Moreover, in the data set on SLC29A4, the “primary_SLC_act, SLC29A4” value is on record as 4.49. The “primary_SLC_act, SLC22A1” value with SLC22A1 was 5.04.

Take `N#Cc1ccc(Nc2cnccc2SCc2ccccc2C(=O)O)c2ccccc12` [KPH2f]: the IC50 is 26.7 µM with ABCG2; 32.1 µM in the data set with SLC22A6 (OAT1) (ref Zhao et al., 2022); 9.37 µM in the data set on SLC2A9 (GLUT9) (ref Zhao et al., 2022); 0.24 µM in the data set with SLC22A12 (URAT1) (ref Zhao et al., 2022). Besides, in the data set with SLC22A6 (OAT1) (ChEMBL CHEMBL5157441, ref PMID 34998055), the “primary_SLC_act, SLC22A6” value is reported as 4.49. In addition, the primary_SLC_act in the data set with SLC2A9 (GLUT9) (SLC2A9, known data from the KNIME workflow, ref ChEMBL, pubmed 34998055) is recorded as 5.03. Further, the “primary_SLC_act, SLC22A12” value in the data set with SLC22A12 (URAT1) (ChEMBL CHEMBL5157443, ref PMID 34998055) is listed as 6.62.

In the case of `CCOC(=O)N1CCC(=C2c3ccc(Cl)cc3CCc3cccnc32)CC1` [Loratadine], the other_targets_act is recorded as 5.51 in the data set on NR1H4; 4.2 in the data set with KCNK9; 6.71 in the data set with HTR2B; 4.3 with PTAFR; 6.72 with HRH1. Further, in the data set on SLC6A15, the primary_SLC_act is recorded as 5.4.

As for `Nc1nc2ccc(OC(F)(F)F)cc2s1` [Riluzole], in the data set with SCN2A, the other_targets_act is 5.66.

For the compound `Cc1ccsc1C(=CCCN1CCC[C@@H](C(=O)O)C1)c1sccc1C` [Tiagabine], the primary_SLC_act in the data set on SLC6A1 is listed as 7.18.

As for `Fc1ccc(C(OCCN2CCN(CCCc3ccccc3)CC2)c2ccc(F)cc2)cc1` [Vanoxerine (GBR12909), Vanoxerine], the other_targets_act with SIGMAR1 is 7.37.
